Paper PMC6446940 (ChemMedChem, 2018)
Read-outs that look alike come from different tables or passages of the source.

Legend:
[1] = test system: HIV-1 Env pseudovirus REJO4541, clone 67; assay: Single-cycle assay TZM-bl, Env pseudovirus panel
[2] = target: HIV-1 Reverse Transcriptase (RT) (Human immunodeficiency virus type 1 group M subtype B, UniProt P04585); assay: biochemical; assay type: biochemical
[3] = test system: HIV-1 Env pseudovirus TRO, clone 11; assay: Single-cycle assay TZM-bl, Env pseudovirus panel; conditions: TZM-bl
[4] = test system: HIV-1 Env pseudovirus QF495.23M.ENV.A3; assay: Single-cycle assay TZM-bl, Env pseudovirus panel; conditions: TZM-bl
[5] = test system: HIV-1 Env pseudovirus MI206.W0M.ENV.D1; assay: Single-cycle assay, Paired Infant and Maternal Env clones
[6] = test system: HIV-1 Env pseudovirus Q259ENV.W6; assay: Single-cycle assay TZM-bl, Env pseudovirus panel; conditions: TZM-bl
[7] = test system: HIV-1 Env pseudovirus KNH1144; assay: Single-cycle assay TZM-bl, Env pseudovirus panel
[8] = test system: HIV-1 Env pseudovirus Du422, clone 1; assay: Single-cycle assay TZM-bl, Env pseudovirus panel; conditions: TZM-bl
[9] = test system: HIV-1 Env pseudovirus HIV-00836-2, clone 5; assay: Single-cycle assay TZM-bl, Env pseudovirus panel; conditions: TZM-bl
[10] = Cytotoxicity; assay type: cell-based, human; conditions: human, freshly isolated and stimulated uninfected PBMC
[11] = test system: HIV-1 panel of Paired Infant (B) and Maternal (M) Env Molecular Clones; assay: Single-cycle assay, means over Paired Infant and Maternal Env clones
[12] = test system: HIV-1 Env pseudovirus HIV-25925-2, clone 22; assay: Single-cycle assay TZM-bl, Env pseudovirus panel
[13] = test system: HIV-1 Env pseudovirus B41; assay: Single-cycle assay TZM-bl, Env pseudovirus panel; conditions: TZM-bl
[14] = test system: control pseudovirus VSV-G; assay: microbe, parasite or virus in culture; assay type: cell-based; conditions: Pseudovirus, U87/CD4/CCR5
[15] = test system: HIV-1 Env pseudovirus WEAUd15.410.5017; assay: Single-cycle assay TZM-bl, Env pseudovirus panel; conditions: TZM-bl
[16] = test system: HIV-1 Env pseudovirus CRF02_AG, clone 257; assay: Single-cycle assay TZM-bl, Env pseudovirus panel; conditions: TZM-bl
[17] = test system: HIV-1 Env pseudovirus MJ613.W0M.ENV.A2; assay: Single-cycle assay, Paired Infant and Maternal Env clones
[18] = test system: HIV-1 Env pseudovirus QB099.391M.ENV.C8; assay: Single-cycle assay TZM-bl, Env pseudovirus panel; conditions: TZM-bl
[19] = test system: HIV-1 Env pseudovirus QH0692, clone 42; assay: Single-cycle assay TZM-bl, Env pseudovirus panel; conditions: TZM-bl
[20] = test system: HIV-1 Env pseudovirus BK184.W6M.ENV.D2; assay: Single-cycle assay, Paired Infant and Maternal Env clones
[21] = test system: HIV-1 Env pseudovirus QA790.204I.ENV.E2; assay: Single-cycle assay TZM-bl, Env pseudovirus panel; conditions: TZM-bl
[22] = test system: HIV-1 Env pseudovirus QA790.204I.ENV.C8; assay: Single-cycle assay TZM-bl, Env pseudovirus panel; conditions: TZM-bl
[23] = test system: HIV-1 Env pseudovirus QD435.100M.ENV.B5; assay: Single-cycle assay TZM-bl, Env pseudovirus panel; conditions: TZM-bl
[24] = test system: HIV-1 Env pseudovirus ML274.W0M.ENV.B1; assay: Single-cycle assay, Paired Infant and Maternal Env clones
[25] = test system: HIV-1 Env pseudovirus PVO, clone 4; assay: Single-cycle assay TZM-bl, Env pseudovirus panel; conditions: TZM-bl
[26] = test system: HIV-1 Env pseudovirus B1206.W6P.ENV.A1A; assay: Single-cycle assay, Paired Infant and Maternal Env clones
[27] = test system: HIV-1 Env pseudovirus RHPA4259, clone 7; assay: Single-cycle assay TZM-bl, Env pseudovirus panel; conditions: TZM-bl
[28] = Cytotoxicity; assay type: cell-based; conditions: human, U87-CD4-CCR5 cells
[29] = test system: HIV-1 Env pseudovirus MK184.W0M.ENV.E4; assay: Single-cycle assay, Paired Infant and Maternal Env clones
[30] = test system: HIV-1 Env pseudovirus 1054.TC4.1499; assay: Single-cycle assay TZM-bl, Env pseudovirus panel; conditions: TZM-bl
[31] = test system: HIV-1 Env pseudovirus CRF02_AG, clone 251; assay: Single-cycle assay TZM-bl, Env pseudovirus panel; conditions: TZM-bl
[32] = test system: HIV-1 Env pseudovirus BL274.W6M.ENV.A3; assay: Single-cycle assay, Paired Infant and Maternal Env clones
[33] = test system: HIV-1 Env pseudovirus CAP210.2.00.E8; assay: Single-cycle assay TZM-bl, Env pseudovirus panel; conditions: TZM-bl
[34] = test system: HIV-1 Env pseudovirus HIV-16936-2, clone 21; assay: Single-cycle assay TZM-bl, Env pseudovirus panel; conditions: TZM-bl
[35] = test system: HIV-1 Env pseudovirus THRO4156, clone 18; assay: Single-cycle assay TZM-bl, Env pseudovirus panel
[36] = Human immunodeficiency virus 1, read-out: IC50 Mean ± SEM: Infant (B)
[37] = Human immunodeficiency virus 1, read-out: IC50 Mean ± SEM: Mother (M)
[38] = Human immunodeficiency virus 1, read-out: IC50 Mean ± SEM: Overall (n=10)

Cc1nc(C(CN)NC(=O)c2ccc(-c3ccc4c(c3)OCO4)[nH]2)sc1CO (centres unmarked) [NBD-14110, N-(2-amino-1-(5-(hydroxymethyl)-4-methylthiazol-2-yl)ethyl)-5-(benzo[d][1,3]dioxol-5-yl)-1H-pyrrole-2-carboxamide]
IC50 [1]: 3.4 ± 0.3 µM | IC50 [2]: 30.6 ± 2.7 µM | IC50 [3]: 2.4 ± 0.4 µM | IC50 [4]: 3 ± 0.1 µM | IC50 [5]: 4.7 ± 0.2 µM | IC50 [6]: 1.9 ± 0.2 µM | IC50 [7]: 5.9 ± 0.4 µM | IC50 [8]: 1.8 ± 0.2 µM | IC50 [9]: 1.7 ± 0.1 µM | CC50 at 7 days [10]: 62.8 ± 2.9 µM | IC50 [11, 36]: 4.8e-06 ± 8e-07 M | IC50 [11, 37]: 5.2e-06 ± 6e-07 M | IC50 [11, 38]: 5e-06 ± 5e-07 M | IC50 [12]: 4.7 ± 0.1 µM | IC50 [13]: 2 ± 0.1 µM | IC50 [14]: 51.6 ± 4.4 µM | IC50 [15]: 1.6 ± 0.1 µM | IC50 [16]: 5.4 ± 0.2 µM | IC50 [17]: 4.9 ± 0.1 µM | IC50 [18]: 4.3 ± 0.5 µM | IC50 [19]: 8.2 ± 0.2 µM | IC50 [20]: 3.7 ± 0.6 µM | IC50 [21]: 1.5 ± 0.2 µM | IC50 [22]: 2.4 ± 0.2 µM | IC50 [23]: 2.4 ± 0.2 µM | IC50 [24]: 7.1 ± 0.3 µM | IC50 [25]: 1.4 ± 0.3 µM | IC50 [26]: 5.6 ± 0.2 µM | IC50 [27]: 2.8 ± 0.3 µM | CC50 at 3 days [28]: > 100 µM | IC50 [29]: 3.4 ± 0.2 µM | IC50 [30]: 4.2 ± 0.4 µM | IC50 [31]: 2.5 ± 0.1 µM | IC50 [32]: 7.2 ± 0.1 µM | IC50 [33]: 5.5 ± 0.4 µM | IC50 [34]: 3.5 ± 0.1 µM | IC50 [35]: 2.7 ± 0.2 µM

NCC(NC(=O)c1ccc(-c2ccc3c(c2)OCO3)[nH]1)c1ncc(CO)s1 (centres unmarked) [NBD-14123, N-(2-amino-1-(5-(hydroxymethyl)thiazol-2-yl)ethyl)-5-(benzo[d][1,3]dioxol-5-yl)-1H-pyrrole-2-carboxamide]
IC50 [1]: 3.4 ± 0.2 µM | IC50 [2]: 39.5 ± 2.8 µM | IC50 [3]: 3.6 ± 0.2 µM | IC50 [4]: 3.3 ± 0.2 µM | IC50 [5]: 3.4 ± 0.3 µM | IC50 [6]: 2.3 ± 0.2 µM | IC50 [7]: 4.1 ± 0.4 µM | IC50 [8]: 2.5 ± 0.3 µM | IC50 [9]: 3.2 ± 0.2 µM | CC50 at 7 days [10]: 61.3 ± 4 µM | IC50 [11, 36]: 4.2e-06 ± 6e-07 M | IC50 [11, 37]: 4.1e-06 ± 4e-07 M | IC50 [11, 38]: 4.2e-06 ± 3e-07 M | IC50 [12]: 5.6 ± 0.3 µM | IC50 [13]: 2.8 ± 0.3 µM | IC50 [14]: 45.3 ± 2.3 µM | IC50 [15]: 3.4 ± 0.2 µM | IC50 [16]: 4.4 ± 0.1 µM | IC50 [17]: 4 ± 0.1 µM | IC50 [18]: 4.4 ± 0.6 µM | IC50 [19]: 6.4 ± 0.1 µM | IC50 [20]: 3.6 ± 0.1 µM | IC50 [21]: 2.5 ± 0.3 µM | IC50 [22]: 1.4 ± 0.2 µM | IC50 [23]: 3.5 ± 0.3 µM | IC50 [24]: 5.6 ± 0.4 µM | IC50 [25]: 1.9 ± 0.2 µM | IC50 [26]: 4.9 ± 0.3 µM | IC50 [27]: 3.1 ± 0.7 µM | CC50 at 3 days [28]: > 100 µM | IC50 [29]: 3.7 ± 0.1 µM | IC50 [30]: 2.4 ± 0.3 µM | IC50 [31]: 3.1 ± 0.2 µM | IC50 [32]: 5.7 ± 0.3 µM | IC50 [33]: 5.3 ± 0.2 µM | IC50 [34]: 4.4 ± 0.5 µM | IC50 [35]: 3.1 ± 0.1 µM
